Consider 15 molecules from the SangsterLogP compilation.

As for `CCOCCOCCO`, the logP was -0.54. For the molecule `CCOC(=O)CCC(=O)OCC`, the logP turned out to be 1.19. Turning to `CCOCCOCC`, the logP stood at 0.66. `COC(=O)CCC(=O)OC` showed a lipophilicity (logP) of 0.19. With `CCOCCOCCOCC`, the logP amounted to 0.39. The molecule `CCCCOCCCC` yielded a logP of 3.21. Molecule `CCCCOCCO` showed a logP of 0.76.

In the case of `CCCOC(=O)CCC(=O)OCCC`, the logP amounted to 2.16. Under `CCCCOCCOCCO` stands 0.56; under `CCCCOCCOCCCC`, 2.48.

Consider `COCCOCCOC`, for which the logP was -0.36. Take `COCCOC`: the logP was -0.21. With `CCCCCCOCCOCCO`, the logP came to 1.7.

In turn, `CCCCCCOCCO` came in with a logP of 1.86. The logP values of the last two molecules are within 0.2 log units of each other. In turn, `CCCCOCCOCCOCCCC` displayed a logP of 1.92. This logP and that of the molecule before are within 0.2 log units of each other.
